Test results from patent US7001607B1, “Artificial tear replacement solution” (Bausch & Lomb Incorporated, priority 1999, dated 2006).

Experiment: surface tension of components
Type: physicochemical

Compound	surface tension σ
Fc1c(F)c(F)c2c(c1F)c(F)c(F)c1c(F)c(F)c(F)c(F)c12 [perfluorophenanthrene]	19 mNm
CC[N+]1(CC)CC[N+](CC)(CC)CC1.O=C([O-])C(F)(F)C(F)(F)C(F)(F)C(F)(F)C(F)(F)C(F)(F)C(F)(F)F.O=C([O-])C(F)(F)C(F)(F)C(F)(F)C(F)(F)C(F)(F)C(F)(F)C(F)(F)F [tetraethylpiperazinium salt of perfluorooctanoic acid]	15.9 mNm
perfluoroalkylethanol oxethylate	19 mNm
